Reference: patent publication US9127004B2, “Nitrogen containing heterocyclic compounds” (Wockhardt Ltd., priority 2011, dated 2015)

Columns and labels:
Test in all cases: MIC of Ceftazidime in presence of test compound, agar dilution (CLSI)
Format in all cases: cell-based
E. coli 7MP = conditions: compound present at 4 mcg/ml
Procedure: (§1) The biological activity of representative compounds according to the invention against various bacterial strains was investigated. In a typical study, overnight grown bacterial cultures were diluted appropriately and inoculated on the agar media containing doubling dilutions of the test compounds. Observation for growth or no growth was performed after 16-20 hours of incubation at 35±2° C. in ambient air. The overall procedure was performed as per Clinical and Laboratory Standards Institute (CLSI) recommendations (Clinical and Laboratory Standards Institute (CLSI), Performance Standards for Antimicrobial Susceptibility Testing, 20th Informational Supplement, M 100-S20, Volume 30, No. 1, 2010).
(§2) The antibacterial activity of representative compounds according to the invention was also investigated in combination with at least one antibacterial agent using the above study protocol and the results are given Table 3 and 4.

E. coli NCTC 13351 = conditions: compound present at 4 mcg/ml, Table 3
Procedure: as §1, §2

E. coli M50 = conditions: compound present at 4 mcg/ml
Procedure: as §1, §2

E. coli W 13352 = conditions: E. coli W 13352, Class A ESBL; compound present at 4 mcg/ml; Table 4
Procedure: as §1, §2

E. coli B 89 = conditions: E. coli B 89, Class C ESBL; compound present at 4 mcg/ml; Table 4
Procedure: as §1, §2

K. pneumoniae H 520 = conditions: K. pneumoniae H 520, KPC ESBL; compound present at 4 mcg/ml; Table 4
Procedure: as §1, §2

E. coli W 13351 = conditions: E. coli W 13351, Class A ESBL; compound present at 4 mcg/ml; Table 4
Procedure: as §1, §2

K. pneumoniae H 521 = conditions: K. pneumoniae H 521, KPC ESBL; compound present at 4 mcg/ml; Table 4
Procedure: as §1, §2

A. baumannii 13304 = conditions: A. baumannii 13304, Class D ESBL; compound present at 4 mcg/ml; Table 4
Procedure: as §1, §2

E. coli W 13353 = conditions: E. coli W 13353, Class A ESBL; compound present at 4 mcg/ml; Table 4
Procedure: as §1, §2

A. baumannii 13301 = conditions: A. baumannii 13301, Class D ESBL; compound present at 4 mcg/ml; Table 4
Procedure: as §1, §2

K. pneumoniae H 522 = conditions: K. pneumoniae H 522, KPC ESBL; compound present at 4 mcg/ml; Table 4
Procedure: as §1, §2

SMILES	Activity of Ceftazidime (MIC) in presence of compound (E. coli 7MP; Table 3)	Activity of Ceftazidime (MIC) in presence of compound (E. coli NCTC 13351)	Activity of Ceftazidime (MIC) in presence of compound (E. coli M50; E. coli M50, Table 3)	other results
CCc1nnc([C@H]2CC[C@@H]3CN2C(=O)N3OS(=O)(=O)[O-])o1.[Na+] (relative stereo) [Example 2, Sodium salt of trans-6-(sulphooxy)-2-(5-ethyl-[1,3,4]-oxadiazol-2-yl)-7-oxo-1,6-diazabicyclo[3.2.1]-octane]	32 µg/mL	16 µg/mL	16 µg/mL	
O=C1N2C[C@@H](CC[C@@H]2c2nnc(C(F)(F)F)o2)N1OS(=O)(=O)[O-].[Na+] (relative stereo) [Example 3, Sodium salt of trans-6-(sulphooxy)-2-(5-trifluoromethyl-[1,3,4]-oxadiazol-2-yl)-7-oxo-1,6-diazabicyclo[3.2.1]-octane]	32 µg/mL	16 µg/mL	16 µg/mL	
NC(=O)c1nnc([C@H]2CC[C@@H]3CN2C(=O)N3OS(=O)(=O)O)o1.[Na] (relative stereo) [Example 4, Sodium salt of trans-6-(sulphooxy)-2-(5-carboxamido-[1,3,4]-oxadiazol-2-yl)-7-oxo-1,6-diazabicyclo[3.2.1]-octane]	2 µg/mL	0.5 µg/mL	1 µg/mL	Activity of Ceftazidime (MIC) in presence of compound (E. coli 7MP; Class C ESBL, Table 4): 2 µg/mL; Activity of Ceftazidime (MIC) in presence of compound (E. coli W 13352): 1 µg/mL; Activity of Ceftazidime (MIC) in presence of compound (E. coli B 89): 1 µg/mL; Activity of Ceftazidime (MIC) in presence of compound (K. pneumoniae H 520): 1 µg/mL; Activity of Ceftazidime (MIC) in presence of compound (E. coli W 13351): 0.5 µg/mL; Activity of Ceftazidime (MIC) in presence of compound (E. coli M50; E. coli M 50, Class C ESBL, Table 4): 1 µg/mL; Activity of Ceftazidime (MIC) in presence of compound (K. pneumoniae H 521): 1 µg/mL; Activity of Ceftazidime (MIC) in presence of compound (A. baumannii 13304): 8 µg/mL; Activity of Ceftazidime (MIC) in presence of compound (E. coli W 13353): 0.25 µg/mL; Activity of Ceftazidime (MIC) in presence of compound (A. baumannii 13301): >32 µg/mL; Activity of Ceftazidime (MIC) in presence of compound (K. pneumoniae H 522): 1 µg/mL
O=C1N2C[C@@H](CC[C@@H]2c2nnc(-c3ccon3)o2)N1OS(=O)(=O)[O-].[Na+] (relative stereo) [Example 5, Sodium salt of trans-6-(sulphooxy)-2-(5-(isooxazol-3-yl)-[1,3,4]-oxadiazol-2-yl)-7-oxo-1,6-diazabicyclo[3.2.1]-octane]	16 µg/mL	4 µg/mL	4 µg/mL	
O=C1N2C[C@@H](CC[C@@H]2c2nnc(-c3ccco3)o2)N1OS(=O)(=O)[O-].[Na+] (relative stereo) [Example 6, Sodium salt of trans-6-(sulphooxy)-2-(5-(furan-2-yl)-[1,3,4]-oxadiazol-2-yl)-7-oxo-1,6-diazabicyclo[3.2.1]-octane]	32 µg/mL	32 µg/mL	16 µg/mL	
O=C1N2C[C@@H](CC[C@@H]2c2nnc(-c3ccccc3)o2)N1OS(=O)(=O)O.[Na] (relative stereo) [Example 7, Sodium salt of trans-6-(sulphooxy)-2-(5-phenyl-[1,3,4]-oxadiazol-2-yl)-7-oxo-1,6-diazabicyclo[3.2.1]-octane]	32 µg/mL	16 µg/mL	16 µg/mL	
O=C1N2C[C@@H](CC[C@@H]2c2nnc(-c3ccccn3)o2)N1OS(=O)(=O)[O-].[Na+] (relative stereo) [Example 8, Sodium salt of trans-6-(sulphooxy)-2-(5-(pyridin-2-yl)-[1,3,4]-oxadiazol-2-yl)-7-oxo-1,6-diazabicyclo[3.2.1]-octane]	32 µg/mL	16 µg/mL	16 µg/mL	
NC(=O)c1cccc(-c2nnc([C@H]3CC[C@@H]4CN3C(=O)N4OS(=O)(=O)O)o2)n1.[Na] (relative stereo) [Example 9, Sodium salt of trans-6-(sulphooxy)-2-(5-(6-carboxamido-pyridin-2-yl)-[1,3,4]-oxadiazol-2-yl)-7-oxo-1,6-diazabicyclo[3.2.1]-octane]	>32 µg/mL	2 µg/mL	8 µg/mL	
O=C1N2C[C@@H](CC[C@@H]2c2nnc(-c3cn4c(n3)COCC4)o2)N1OS(=O)(=O)O.[Na] (relative stereo) [Example 10, Sodium salt of trans-6-(sulphooxy)-2-(5-(5,6-dihydro-8H-imidazo[2,1-c][1,4]-oxazin-2-yl)-[1,3,4]-oxadiazol-2-yl)-7-oxo-1,6-diazabicyclo[3.2.1]-octane]	32 µg/mL	16 µg/mL	16 µg/mL	
O=C1N2C[C@@H](CC[C@@H]2c2nnc(CN3CCOCC3)o2)N1OS(=O)(=O)O.[Na] (relative stereo) [Example 11, Sodium salt of trans-6-(sulphooxy)-2-(5-(morpholino-4-methyl)-[1,3,4]-oxadiazol-2-yl)-7-oxo-1,6-diazabicyclo[3.2.1]-octane]	32 µg/mL	1 µg/mL	2 µg/mL	
O=C(c1nnc([C@H]2CC[C@@H]3CN2C(=O)N3OS(=O)(=O)[O-])o1)N1CCOCC1.[Na+] (relative stereo) [Example 12, Sodium salt of trans-sulfuric acid mono-[2-(5-(morpholin-4-yl-carbonyl)-[1,3,4]-oxadiazol-2-yl)-7-oxo-1,6-diazabicyclo[3.2.1]-octan-6-yl]ester]	16 µg/mL	2 µg/mL	8 µg/mL	
